Measured values published in US20240175881A1, “SIMPLIFIED METHODS FOR MEASURING LIVER FUNCTION” (HepQuant, LLC, priority 2022, published 2024).

Assays:
[1] = tested on: patients with well-compensated (Child-Pugh A) NASH cirrhosis; assay: Risk ACE from simplified cholate tests (SHUNT V2.0, DuO) in open-label resmetirom arm of MAESTRO-NAFLD-1; format: in vivo, human
Excerpt: MAESTRO-NAFLD-1 (NCT04197479) was a 52-week Phase 3 trial to evaluate the safety and tolerability of resmetirom, a thyroid hormone receptor-β agonist being studied for the treatment of NASH. (Harrison et al., Lancet 2019, 394:2012-24). MAESTRO-NAFLD-1 included an open-label active resmetirom treatment arm in patients with well-compensated (Child-Pugh A [CP-A]) NASH cirrhosis (FIG. 23).
Methods: Subjects (n=34) with compensated NASH cirrhosis underwent baseline testing and subsequent retesting at 28 and 48 weeks. Eligibility included at least 3 metabolic risk factors and NASH cirrhosis diagnosed by liver biopsy or accepted criteria
AUCs were calculated by a compartmental model (McRae et al., 2023 Translational Res. 252:53-63). For SHUNT V2.0: IV and oral data at 20 and 60 minutes were employed. For DuO: only oral data at 20 and 60 minutes were employed.
Risk ACE was calculated for each subject from the baseline and weeks 28 and 48 disease severity index (DSI). A Poisson model (Risk ACE) estimated the annual clinical event rate based on 220 subjects with 52 clinical events from the HALT-C Trial. The result is an event rate (clinical events per person-year). • Model A: Relationship with baseline DSI (denoted by dsi0):
Y=β0+β1dsi0 • Model D: Relationship with baseline DSI and change in DSI (denoted dsiΔ)
Difference from baseline is represented by the difference of Risk ACE Model A and Model D (Table 26).

[2] = tested on: subjects with Child-Pugh A cirrhosis and a liver stiffness measurement of >15 kPa; conditions: HepQuant SHUNT test; cited from earlier work

Structure (SMILES) | subjects in whom Risk ACE decreased ([1]; DuO test, 28 weeks vs baseline) | subjects in whom Risk ACE decreased ([1]; DuO test, 48 weeks vs baseline) | Δ Risk ACE ([1]; DuO test, Baseline - Week 28 of resmetirom) | Δ Risk ACE ([1]; DuO test, Baseline - Week 28 of resmetirom, listed as resmetirom) | Δ Risk ACE ([1]; DuO test, Baseline - Week 48 of resmetirom) | Δ Risk ACE ([1]; DuO test, Baseline - Week 48 of resmetirom, listed as resmetirom) | subjects in whom Risk ACE decreased ([1]; SHUNT V2.0 test, 28 weeks vs baseline) | subjects in whom Risk ACE decreased ([1]; SHUNT V2.0 test, 48 weeks vs baseline) | Δ Risk ACE ([1]; SHUNT V2.0 test, Baseline - Week 28 of resmetirom) | Δ Risk ACE ([1]; SHUNT V2.0 test, Baseline - Week 28 of resmetirom, listed as resmetirom) | Δ Risk ACE ([1]; SHUNT V2.0 test, Baseline - Week 48 of resmetirom) | Δ Risk ACE ([1]; SHUNT V2.0 test, Baseline - Week 48 of resmetirom, listed as resmetirom) | estimated clinical event rate ([1]; simplified cholate tests, after 28 weeks of resmetirom) | hepatic function [2]
CC(C)c1cc(Oc2c(Cl)cc(-n3nc(C#N)c(=O)[nH]c3=O)cc2Cl)n[nH]c1=O [Resmetirom] | 21 of 23 | 19 of 23 | −0.0182 clinical events per person-year | significant decrease | −0.0355 clinical events per person-year | −0.0355 clinical events per person-yea | 20 of 23 | 19 of 23 | −0.0174 clinical events per person-year | −0.0170 clinical events per person-yea | −0.0325 clinical events per person-year | −0.0325 clinical events per person-yea | reduction in estimated clinical event rate | –
CCOc1c(C(=O)O)cnn1-c1cccc(-c2cccc(C)c2OCc2ccc3c(c2C)CCN(C2CCOCC2)C3)n1 [BI 685509] | – | – | – | – | – | – | – | – | – | – | – | – | – | improves hepatic function
